In brackets after ≈: the same amount, converted by molar mass.
Columns and labels:
Format in all cases: cell-based
E. coli BW25113 = experiment: MIC, microdilution in 96-well plates; conditions: Escherichia coli, BW25113, B: E. coli BW25113; read-out: MIC
Protocol: (§1) A microdilution method in 96-well plates was used and the MIC protocol established by the Clinical Laboratory Standards Institute was followed. From a growing subculture, a 1:10000 inoculum of each strain in Luria-Bertani media was prepared and aliquoted 100 μL in 4 columns of wells, except for the top row wells, which contained 200 μL of inoculum. A solution of gyramide C2 was aliquoted into 3 of the wells containing 200 μL and DMSO was added to the 4th well. The liquid in each of wells was mixed with a multi-channel pipet and 100 μL was transferred to the next well and mixed. The 2-fold dilution was continued down the 96-well plate until 100 μL was left, which was discarded. The plates were incubated at 37° C. with shaking for 16-18 hours. The MIC was determined as the lowest concentration that inhibited growth and had no turbidity by visual inspection.
(§2) Minimum inhibitory concentrations of various gyramide compounds against 20 strains of bacteria were determined using the procedure described above.

Edwardsiella tarda = experiment: MIC, microdilution in 96-well plates; conditions: D: Edwardsiella tarda
Protocol: as §1, §2

E. coli JW5503 (deltolC) = experiment: MIC, 20-strain panel; conditions: Escherichia coli, C: E. coli JW5503 (deltolC)
Protocol: as §1, §2

E. coli MG1655 = experiment: MIC, 20-strain panel; conditions: Escherichia coli, MG1655, A: E. coli MG1655; read-out: MIC
Protocol: as §1, §2

[1] = tested on: Klebsiella pneumoniae subsp. pneumoniae; experiment: MIC, 20-strain panel; conditions: E: Klebsiella pneumoniae subsp. pneumoniae
Protocol: as §1, §2

[2] = tested on: Salmonella enterica subsp. enterica typhimurium; experiment: MIC, 20-strain panel; conditions: F: Salmonella enterica subsp. enterica Typhimurium
Protocol: as §1, §2

Shigella flexneri = experiment: MIC, 20-strain panel; conditions: G: Shigella flexneri
Protocol: as §1, §2

[3] = tested on: Staphylococcus aureus subsp. aureus; experiment: MIC, 20-strain panel; conditions: H: Staphylococcus aureus subsp. aureus, read-out: MIC
Protocol: as §1, §2

[4] = tested on: Staphylococcus epidermidis; experiment: MIC, 20-strain panel
Protocol: as §1, §2

[5] = tested on: Staphylococcus saprophyticus subsp. saprophyticus; experiment: MIC, 20-strain panel
Protocol: as §1, §2

Streptococcus agalactiae = experiment: MIC, 20-strain panel
Protocol: as §1, §2

Streptococcus pyogenes = experiment: MIC, 20-strain panel
Protocol: as §1, §2

| SMILES | MIC (E. coli BW25113) [µg/mL] | MIC (Edwardsiella tarda) [µg/mL] | MIC (E. coli JW5503 (deltolC)) [µg/mL] | MIC (E. coli MG1655) [µg/mL] | MIC [1] [µg/mL] | MIC [2] [µg/mL] | MIC (Shigella flexneri) [µg/mL] | MIC [3] [µg/mL] | MIC [4] [µg/mL] | MIC [5] [µg/mL] | MIC (Streptococcus agalactiae) [µg/mL] | MIC (Streptococcus pyogenes) [µg/mL] |
| --- | --- | --- | --- | --- | --- | --- | --- | --- | --- | --- | --- | --- |
| N#Cc1cccc(S(=O)(=O)N[C@@H]2CCN(Cc3ccc(OC4CCCC4)cc3)C2)c1 [Compound 40] | > 8 | > 8 | 0.5 (≈ 1.17 µM) | > 8 | > 8 | 4 (≈ 9.4 µM) | > 8 | > 8 | > 8 | > 8 | > 8 | > 8 |
| O=S(=O)(N[C@@H]1CCN(Cc2ccc(OC3CCCC3)cc2)C1)c1cccc(C(F)(F)F)c1 [Compound 41] | > 8 | > 8 | 0.5 (≈ 1.07 µM) | > 8 | > 8 | 8 (≈ 17.1 µM) | > 8 | ~8 (≈ 17.1 µM) | 8 (≈ 17.1 µM) | > 8 | > 8 | > 8 |
| COc1cc(CN2CC[C@@H](NS(=O)(=O)c3cccc(C(F)(F)F)c3)C2)ccc1OC(C)C [Compound 42] | > 8 | > 8 | > 8 | > 8 | > 8 | > 8 | > 8 | > 8 | > 8 | > 8 | > 8 | > 8 |
| O=S(=O)(N[C@@H]1CCN(Cc2ccc(-c3ccccn3)cc2)C1)c1cccc(C(F)(F)F)c1 [Compound 43] | > 8 | > 8 | 0.5 (≈ 1.08 µM) | > 8 | > 8 | > 8 | > 8 | > 8 | > 8 | > 8 | > 8 | > 8 |
| CC(=O)c1cccc(S(=O)(=O)N[C@@H]2CCN(Cc3ccc(-c4ccccc4)cc3)C2)c1 [Compound 44] | > 8 | > 8 | 0.25 (≈ 0.575 µM) | > 8 | > 8 | 8 (≈ 18.4 µM) | > 8 | > 8 | > 8 | > 8 | > 8 | > 8 |
| O=S(=O)(N[C@@H]1CCN(Cc2ccc(OC3CCCC3)cc2)C1)c1cccc(OC(F)(F)F)c1 [Compound 45] | > 8 | > 8 | 2 (≈ 4.13 µM) | > 8 | > 8 | > 8 | > 8 | > 8 | 8 (≈ 16.5 µM) | > 8 | > 8 | > 8 |
| N#Cc1cccc(S(=O)(=O)N[C@@H]2CCN(Cc3ccc(-c4ccccn4)cc3)C2)c1 [Compound 46] | > 8 | > 8 | 1 (≈ 2.39 µM) | > 8 | > 8 | 8 (≈ 19.1 µM) | > 8 | > 8 | > 8 | > 8 | > 8 | > 8 |
| O=S(=O)(N[C@@H]1CCN(Cc2ccc(-c3ccccc3)cc2)C1)c1cc(C(F)(F)F)ccc1Cl [Compound 47] | > 8 | > 8 | 1 (≈ 2.02 µM) | > 8 | > 8 | ~8 (≈ 16.2 µM) | > 8 | > 8 | ~8 (≈ 16.2 µM) | > 8 | > 8 | ~8 (≈ 16.2 µM) |
| O=S(=O)(N[C@@H]1CCN(Cc2ccc(-c3ccccn3)cc2)C1)c1cccc(OC(F)(F)F)c1 [Compound 48] | > 8 | > 8 | 1 (≈ 2.09 µM) | > 8 | > 8 | > 8 | > 8 | > 8 | > 8 | > 8 | > 8 | > 8 |
| CC(=O)c1cccc(S(=O)(=O)N[C@@H]2CCN(Cc3ccc(OC(C)C)cc3)C2)c1 [Compound 49] | > 8 | > 8 | 2 (≈ 4.8 µM) | > 8 | > 8 | > 8 | > 8 | > 8 | > 8 | > 8 | > 8 | > 8 |
| O=S(=O)(N[C@@H]1CCN(Cc2ccc(-c3cccc(Cl)c3)cc2)C1)c1cccc(C(F)(F)F)c1 [Compound 50] | > 8 | > 8 | 8 (≈ 16.2 µM) | > 8 | > 8 | > 8 | > 8 | 8 (≈ 16.2 µM) | 2 (≈ 4.04 µM) | > 8 | > 8 | ~8 (≈ 16.2 µM) |
| O=S(=O)(N[C@@H]1CCN(Cc2ccc(OC(F)(F)F)cc2)C1)c1cccc(OC(F)(F)F)c1 [Compound 51] | > 8 | > 8 | 4 (≈ 8.26 µM) | > 8 | > 8 | > 8 | > 8 | > 8 | > 8 | > 8 | > 8 | > 8 |
| O=S(=O)(N[C@@H]1CCN(Cc2ccc(SC(F)(F)F)cc2)C1)c1cccc(C(F)(F)F)c1 [Compound 52] | > 8 | > 8 | 4 (≈ 8.26 µM) | > 8 | > 8 | > 8 | > 8 | > 8 | > 8 | > 8 | > 8 | > 8 |
| O=S(=O)(N[C@@H]1CCN(Cc2ccc(-c3cccs3)cc2)C1)c1cccc(OC(F)(F)F)c1 [Compound 53] | > 8 | > 8 | 4 (≈ 8.29 µM) | > 8 | > 8 | > 8 | > 8 | > 8 | 8 (≈ 16.6 µM) | > 8 | > 8 | > 8 |
| N#Cc1cccc(S(=O)(=O)N[C@@H]2CCN(Cc3ccc(OC4CCOCC4)cc3)C2)c1 [Compound 54] | > 8 | > 8 | 2 (≈ 4.53 µM) | > 8 | > 8 | 8 (≈ 18.1 µM) | > 8 | > 8 | > 8 | > 8 | > 8 | > 8 |
| O=S(=O)(N[C@@H]1CCN(Cc2ccc(SC(F)(F)F)cc2)C1)c1cccc(OC(F)(F)F)c1 [Compound 55] | > 8 | > 8 | 8 (≈ 16 µM) | > 8 | > 8 | > 8 | > 8 | > 8 | > 8 | > 8 | > 8 | > 8 |
| Cc1c(CN2CC[C@@H](NS(=O)(=O)c3cccc(C(F)(F)F)c3)C2)cnn1-c1ccccc1 [Compound 56] | > 8 | > 8 | > 8 | > 8 | > 8 | > 8 | > 8 | > 8 | > 8 | > 8 | > 8 | > 8 |
| O=S(=O)(N[C@@H]1CCN(Cc2ccc(-c3nccs3)cc2)C1)c1cccc(C(F)(F)F)c1 [Compound 57] | > 8 | > 8 | 8 (≈ 17.1 µM) | > 8 | > 8 | > 8 | > 8 | > 8 | > 8 | > 8 | > 8 | > 8 |
| O=S(=O)(N[C@@H]1CCN(Cc2ccc(-c3cncnc3)cc2)C1)c1cccc(C(F)(F)F)c1 [Compound 58] | > 8 | > 8 | 8 (≈ 17.3 µM) | > 8 | > 8 | > 8 | > 8 | > 8 | > 8 | > 8 | > 8 | > 8 |
| CC(C)Oc1ccc(CN2CC[C@@H](NS(=O)(=O)c3cnccc3Cl)C2)cc1 [Compound 59] | > 8 | > 8 | > 8 | > 8 | > 8 | > 8 | > 8 | > 8 | > 8 | > 8 | > 8 | > 8 |
| O=S(=O)(N[C@@H]1CCN(Cc2ccc3c(c2)OCCO3)C1)c1cccc(C(F)(F)F)c1 [Compound 60] | > 8 | > 8 | 8 (≈ 18.1 µM) | > 8 | > 8 | > 8 | > 8 | > 8 | > 8 | > 8 | > 8 | > 8 |
